For one assay, the system named is HGC-27. Briefly: Antiproliferative activity against human HGC27 cells after 96 hrs by SRB assay. The format is functional, cell-based. The conditions noted are these: HGC-27, 96 h. On the technique in general: Sulforhodamine B stains cellular protein and so reports cell mass.
For assay [1], the system named is Quadruplex DNA. In words: Stabilization of 5'-FAM/3'-TAMRA labeled c-KIT2 G-quadruplex DNA (unknown origin) assessed as change in melting temperature at 0.5 uM by FRET assay. The format is nucleic-acid assay.
The test system of assay [2] is Quadruplex DNA. In words: Stabilization of 5'-FAM/3'-TAMRA labeled human F21T G-quadruplex DNA assessed as change in melting temperature at 0.5 uM by FRET assay. The format is nucleic-acid assay.
In another assay the test system is dsDNA. Briefly: Stabilization of 5'-FAM/3'-TAMRA labeled duplex DNA (unknown origin) assessed as change in melting temperature at 0.5 uM by FRET assay. The format is nucleic-acid assay.
Assay [3] has as its system Quadruplex DNA. In words: Stabilization of c-KIT G-quadruplex DNA in imatinib-resistant human GIST48 cells harboring c-KIT V560D/D820A double mutant assessed as downregulation of c-KIT protein expression at 1 uM after 1 week by immunoblot analysis relative to control. (In general: A western blot detects proteins with antibodies after separation by electrophoresis.)
The species entered for the next assay is Homo sapiens. Briefly: Stabilization of 5'-UTR BCL-2 G-quadruplex RNA in imatinib-resistant human GIST48 cells harboring c-KIT V560D/D820A double mutant at 0.3 uM after 1 week by immunoblot analysis relative to control.
Assay [4] is described as follows: Stabilization of 5'-FAM/3'-TAMRA labeled 5'-UTR BCL-2 G-quadruplex RNA (unknown origin) assessed as melting temperature at 0.5 uM in presence of NaCl by FRET assay.
The nature of assay [5]: Stabilization of 5'-FAM/3'-TAMRA labeled 5'-UTR BCL-2 G-quadruplex RNA (unknown origin) assessed as melting temperature at 0.5 uM in presence of KCl by FRET assay.
Assay [6] can be described thus: Stabilization of 5'-UTR BCL-2 G-quadruplex RNA (unknown origin) transfected in imatinib-susceptible human GIST882 cells harboring c-KIT K642E mutant assessed as decrease in RNA translation by dual luciferase reporter gene assay.
Assay [7] in a line: Antiproliferative activity against imatinib-susceptible human GIST882 cells harboring c-KIT K642E mutant after 96 hrs by SRB assay. The format is functional. The conditions noted are these: GIST882, 96 h.
Assay [8] can be described thus: Antiproliferative activity against imatinib-resistant human GIST62 cells after 96 hrs by SRB assay. The format is functional.
Assay [9] concerns Quadruplex DNA. Briefly: Stabilization of 5'-FAM/3'-TAMRA labeled c-KIT1 G-quadruplex DNA (unknown origin) assessed as change in melting temperature at 0.5 uM by FRET assay. The format is nucleic-acid assay.
The target of assay [10] is Telomerase reverse transcriptase (Homo sapiens) (UniProt O14746). Briefly: Inhibition of telomerase activity in imatinib-susceptible human GIST882 cells harboring c-KIT K642E mutant at 0.5 uM incubated for 1 week by Sybr green staining based TRAP-PCR method.
The test system of assay [11] is Quadruplex DNA. Briefly: Stabilization of c-KIT G-quadruplex DNA in imatinib-resistant human GIST48 cells harboring c-KIT V560D/D820A double mutant assessed as downregulation of c-KIT protein expression at 1 uM after 24 hrs by immunoblot analysis relative to control.
Assay [12] concerns Quadruplex DNA. In words: Stabilization of c-KIT G-quadruplex DNA in imatinib-susceptible human GIST882 cells harboring c-KIT K642E mutant assessed as downregulation of c-KIT protein expression at 1 uM after 24 hrs by immunoblot analysis relative to control.
A short description of assay [13]: Stabilization of 5'-UTR BCL-2 G-quadruplex RNA (unknown origin) transfected in imatinib-susceptible human GIST882 cells harboring c-KIT K642E mutant assessed as decrease in RNA translation at 10 uM by dual luciferase reporter gene assay relative to control. Also noted: scale not given: the % may be the effect or the level left. Background: In a reporter assay the amount or activity of a reporter protein is the signal.

The target of assay [14] is Telomerase reverse transcriptase (Homo sapiens) (UniProt O14746). In words: Inhibition of telomerase activity in imatinib-resistant human GIST48 cells harboring c-KIT V560D/D820A double mutant at 0.05 to 0.30 uM incubated for 1 week by Sybr green staining based TRAP-PCR method.
Assay [15] is described as follows: Stabilization of 5'-FAM/3'-TAMRA labeled 5'-UTR BCL-2 G-quadruplex RNA (unknown origin) assessed as change in melting temperature at 0.5 uM by FRET assay.
Assay [16] can be described thus: Antiproliferative activity against imatinib-resistant human GIST48 cells harboring c-KIT V560D/D820A double mutant after 96 hrs by SRB assay. The format is functional. The conditions noted are these: GIST48, 96 h.
In the next assay the test system is HT-29. Briefly: Antiproliferative activity against human HT-29 cells after 96 hrs by SRB assay. The format is functional, cell-based. Conditions: HT-29, 96 h.
Assay [17] has as its system Quadruplex DNA. In words: Stabilization of 5'-FAM/3'-TAMRA labeled BCL-2 promoter G-quadruplex DNA (unknown origin) assessed as change in melting temperature at 0.5 uM by FRET assay. The format is nucleic-acid assay.
The next assay relates to MCF7. In words: Antiproliferative activity against human MCF7 cells after 96 hrs by SRB assay. The format is functional, cell-based. The conditions noted are these: MCF7, 96 h.

Structures are written as SMILES. Active and inactive are the calls of the source. The rule behind the calls is not given here.

Telomerase reverse transcriptase (Homo sapiens), sequence (O14746 whole entry): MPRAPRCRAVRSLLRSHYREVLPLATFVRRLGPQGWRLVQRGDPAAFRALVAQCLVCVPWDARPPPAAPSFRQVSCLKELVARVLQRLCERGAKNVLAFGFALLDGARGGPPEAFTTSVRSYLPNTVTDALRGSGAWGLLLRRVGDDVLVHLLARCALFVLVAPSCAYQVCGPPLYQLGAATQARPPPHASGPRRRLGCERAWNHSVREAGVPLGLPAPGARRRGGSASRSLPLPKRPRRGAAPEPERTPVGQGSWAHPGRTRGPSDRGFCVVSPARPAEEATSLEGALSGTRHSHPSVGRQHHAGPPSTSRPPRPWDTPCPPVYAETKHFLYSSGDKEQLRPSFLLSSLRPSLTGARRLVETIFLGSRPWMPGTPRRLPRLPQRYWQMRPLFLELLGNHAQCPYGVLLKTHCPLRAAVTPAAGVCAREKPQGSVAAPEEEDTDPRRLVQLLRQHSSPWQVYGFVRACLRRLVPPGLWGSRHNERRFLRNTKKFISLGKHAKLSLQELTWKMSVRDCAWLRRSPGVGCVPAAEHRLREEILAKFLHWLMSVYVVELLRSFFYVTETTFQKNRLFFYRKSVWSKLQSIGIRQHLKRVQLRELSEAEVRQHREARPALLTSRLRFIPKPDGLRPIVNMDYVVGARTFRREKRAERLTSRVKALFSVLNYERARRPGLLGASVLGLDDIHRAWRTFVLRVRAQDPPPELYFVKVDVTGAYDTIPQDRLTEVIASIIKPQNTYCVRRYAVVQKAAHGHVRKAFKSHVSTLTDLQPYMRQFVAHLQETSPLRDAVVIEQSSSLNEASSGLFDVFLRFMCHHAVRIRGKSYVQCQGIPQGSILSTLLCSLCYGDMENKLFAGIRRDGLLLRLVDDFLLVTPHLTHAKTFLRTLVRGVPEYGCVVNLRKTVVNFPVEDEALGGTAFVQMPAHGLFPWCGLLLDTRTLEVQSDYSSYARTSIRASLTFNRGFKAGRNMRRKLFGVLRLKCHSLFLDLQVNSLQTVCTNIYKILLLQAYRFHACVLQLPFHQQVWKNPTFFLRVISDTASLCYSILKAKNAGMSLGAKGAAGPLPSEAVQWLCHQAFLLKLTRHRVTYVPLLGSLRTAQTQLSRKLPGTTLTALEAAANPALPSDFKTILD

Usually IC50 stands for the concentration that gives 50% inhibition. A word on the ΔTm: it is the change in melting temperature against a reference sample. Regarding `O=C1c2cc(NCCN3CCCC3)c3c4c(cc(NCCN5CCCC5)c(c24)C(=O)N1CCN1CCCC1)C(=O)N(CCN1CCCC1)C3=O`, the IC50 with HGC-27 is 0.1 µM; in assay [7] it was 1.6 µM; in assay [8], 0.4 µM; in assay [16], 0.5 µM; with HT-29 it was 0.04 µM. For the same molecule, the ΔTm was 29 °C in the assay with Quadruplex DNA [1]; 29.7 °C with Quadruplex DNA [2]; 3.5 °C in the assay on dsDNA; 11.2 °C with Quadruplex DNA [9]; 10.7 °C in assay [15]; 27.6 °C in the assay with Quadruplex DNA [17]. The Activity was 37% in the assay on Quadruplex DNA [3]; 85% in the assay filed under Homo sapiens; “Dose-dependent effect” in assay [6]; 17% in the assay on Quadruplex DNA [11]; 90% in the assay with Quadruplex DNA [12]; 30% in assay [13]. For the same molecule, the Tm in [4] is 64.5 °C; in [5], 91 °C. Moreover, in [10], the inhibition result is “Active”. The inhibition entry in assay [14] was “inactive”.

With `CN(C)c1ccc(Nc2c3ccc(NC(=O)CCN4CCCC4)cc3nc3cc(NC(=O)CCN4CCCC4)ccc23)cc1`, the IC50 is 2.3 µM in the assay with HGC-27, more than 25 µM in assay [7], more than 25 µM in [8] and more than 25 µM in assay [16]. The thermal shift (ΔTm) is 18.5 °C in the assay with Quadruplex DNA [1]; 21.6 °C in the assay on Quadruplex DNA [2]; 7.2 °C in the assay with dsDNA; 6.5 °C with Quadruplex DNA [9]; 17.9 °C with Quadruplex DNA [17].

With `Cc1ccc(NC(=O)c2ccc(CN3CCN(C)CC3)cc2)cc1Nc1nccc(-c2cccnc2)n1` [IMATINIB], the IC50 in the assay with MCF7 was 11.3 µM; in assay [7] it was 1.7 µM; in [8] it was more than 25 µM; in assay [16] it was 19.8 µM. Besides, the ΔTm was found to be 0.2 °C in the assay with Quadruplex DNA [1]; 0.2 °C in the assay on Quadruplex DNA [2]; 0.1 °C in the assay on dsDNA; 0.2 °C in the assay on Quadruplex DNA [9]; 0.1 °C in assay [15]; 0.1 °C with Quadruplex DNA [17].

(Values after ChEMBL document CHEMBL4118155, “A naphthalene diimide G-quadruplex ligand inhibits cell growth and down-regulates BCL-2 expression in an imatinib-resistant gastrointestinal cancer cell line” (Bioorg Med Chem, 2018).)
